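48-hour exposure; five concentrations; linearly interpolated endpoints. TGI marks complete inhibition of growth.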 Bounds are passed on as bounds.

One assay has as its system SK-OV-3 ovarian. Nature of the assay: NCI-60 cell line screen, 48 h.
As to `CC(=O)N1C(c2[nH]c3ccccc3c2-c2ccccc2)CCN1c1ccccc1` (centres undefined), the TGI is > 10 µM.

`CC(=O)N1C(Nc2ccccn2)CCN1c1ccccc1` (centres undefined): the TGI was > 10 µM.

Regarding `CCNCCNc1c2ccccc2nc2ccccc12`, the TGI was determined as 12.2 µM.

Take `CCCC1(NC(=O)C(F)(F)F)CC(OC)OC2COC(c3ccccc3)OC21` (centres undefined): the TGI was > 100 µM.

As to `COC(O)C(=O)c1c2c(cc3c1CC1(Cc4cc5c(cc4C1)CCC5)C3)CCC2` (centres undefined), the TGI was found to be 31.8 µM.

For the compound `COc1ccc(/C=C2\C(=O)N(C3OC(COC(C)=O)C(OC(C)=O)C(OC(C)=O)C3OC(C)=O)c3ccccc3N=C2N)cc1` (centres undefined), the TGI is > 100 µM.

Compound `N=c1oc2cc(O)ccc2cc1C(=O)NCc1ccccc1` yielded a TGI of 70 µM.

Consider `COc1cc(/C=C/C(=O)c2ccc(NS(=O)(=O)c3cc([N+](=O)[O-])ccc3C)cc2)cc(OC)c1OC`, for which the TGI was 15.4 µM.

Compound `CCOC(=O)c1ccc(N=C2C(=S)N(c3ccc(C(=O)OCC)cc3)C(=N)N2/N=C/c2ccccc2)cc1` showed a TGI of 59 µM.

Another assay concerns SNB-19 CNS. Nature of the assay: NCI-60 cell line screen, 48 h.
`COc1ccc2oc(=N)c(C(=O)NCc3ccccc3)cc2c1`: the TGI is > 100 µM.

For the compound `CC(=O)N1C(c2[nH]c3ccccc3c2-c2ccccc2)CCN1c1ccccc1` (centres undefined), the TGI is > 10 µM.

For the compound `CC(=O)N1C(Nc2ccccn2)CCN1c1ccccc1` (centres undefined), the TGI was > 10 µM.

`CCNCCNc1c2ccccc2nc2ccccc12` registered a TGI of 4.69 µM.

Turning to `CCOC(=O)c1c(N)sc2c1C(C(=O)OCC)CC2` (centres undefined), the TGI is > 100 µM.

For the compound `CC(=O)OCC1OC(SC2=N/C(=C\c3cc4c(=O)c5ccccc5sc4s3)C(=O)N2c2ccccc2)C(OC(C)=O)C(OC(C)=O)C1OC(C)=O` (centres undefined), the TGI was > 100 µM.

In the case of `CCCC1(NC(=O)C(F)(F)F)CC(OC)OC2COC(c3ccccc3)OC21` (centres undefined), the TGI was > 100 µM.

`COC(O)C(=O)c1c2c(cc3c1CC1(Cc4cc5c(cc4C1)CCC5)C3)CCC2` (centres undefined) registered a TGI of 36.1 µM.

As to `CCOC(=O)N(Cc1cccs1)c1cc(OC)c(OC)c(OC)c1`, the TGI was > 100 µM.

In the case of `COc1ccc(/C=C2\C(=O)N(C3OC(COC(C)=O)C(OC(C)=O)C(OC(C)=O)C3OC(C)=O)c3ccccc3N=C2N)cc1` (centres undefined), the TGI was > 100 µM.

Regarding `O=S(=O)(O)c1ccc(O)c2ncc(Cl)cc12`, the TGI is > 100 µM.

`N=c1oc2cc(O)ccc2cc1C(=O)NCc1ccccc1` displayed a TGI of 96.9 µM.

`COc1cc(/C=C/C(=O)c2ccc(NS(=O)(=O)c3cc([N+](=O)[O-])ccc3C)cc2)cc(OC)c1OC`: the TGI was 14.1 µM.

As to `C=CCOc1ccc(/C(N=Nc2ccc([N+](=O)[O-])cc2)=N/NC(=O)c2ccccc2)cc1OC`, the TGI was > 100 µM.

Take `NC(=O)N/N=C1\CCCCc2ccccc21`: the TGI was > 10 µM.

`CCOC(=O)c1ccc(N=C2C(=S)N(c3ccc(C(=O)OCC)cc3)C(=N)N2/N=C/c2ccccc2)cc1` returned a TGI of 44.5 µM.

The test system of another assay is A549 NSCLC. Nature of the assay: NCI-60 cell line screen, 48 h.
Regarding `COc1ccc2oc(=N)c(C(=O)NCc3ccccc3)cc2c1`, the TGI is > 100 µM.

For `CC(=O)N1C(c2[nH]c3ccccc3c2-c2ccccc2)CCN1c1ccccc1` (centres undefined), the TGI is > 10 µM.

As for `CC(=O)N1C(Nc2ccccn2)CCN1c1ccccc1` (centres undefined), the TGI was > 10 µM.

Compound `CCNCCNc1c2ccccc2nc2ccccc12` yielded a TGI of 4.95 µM.

For `CCOC(=O)c1c(N)sc2c1C(C(=O)OCC)CC2` (centres undefined), the TGI was > 100 µM.

Take `CCCC1(NC(=O)C(F)(F)F)CC(OC)OC2COC(c3ccccc3)OC21` (centres undefined): the TGI was > 100 µM.

Compound `COC(O)C(=O)c1c2c(cc3c1CC1(Cc4cc5c(cc4C1)CCC5)C3)CCC2` (centres undefined) showed a TGI of 32.6 µM.

On to `CCOC(=O)N(Cc1cccs1)c1cc(OC)c(OC)c(OC)c1`, for which the TGI was > 100 µM.

With `COc1ccc(/C=C2\C(=O)N(C3OC(COC(C)=O)C(OC(C)=O)C(OC(C)=O)C3OC(C)=O)c3ccccc3N=C2N)cc1` (centres undefined), the TGI is > 100 µM.

Regarding `O=S(=O)(O)c1ccc(O)c2ncc(Cl)cc12`, the TGI was > 100 µM.

With `N=c1oc2cc(O)ccc2cc1C(=O)NCc1ccccc1`, the TGI was > 100 µM.

The compound `COc1cc(/C=C/C(=O)c2ccc(NS(=O)(=O)c3cc([N+](=O)[O-])ccc3C)cc2)cc(OC)c1OC` yielded a TGI of 18.6 µM.

Turning to `C=CCOc1ccc(/C(N=Nc2ccc([N+](=O)[O-])cc2)=N/NC(=O)c2ccccc2)cc1OC`, the TGI was > 100 µM.

In the case of `NC(=O)N/N=C1\CCCCc2ccccc21`, the TGI is > 10 µM.

As for `CCOC(=O)c1ccc(N=C2C(=S)N(c3ccc(C(=O)OCC)cc3)C(=N)N2/N=C/c2ccccc2)cc1`, the TGI was > 100 µM.

A further assay has as its system SK-MEL-2 melanoma. Kind of assay: NCI-60 cell line screen, 48 h.
For the compound `COc1ccc2oc(=N)c(C(=O)NCc3ccccc3)cc2c1`, the TGI was found to be 43.5 µM.

`CC(=O)N1C(c2[nH]c3ccccc3c2-c2ccccc2)CCN1c1ccccc1` (centres undefined): the TGI is > 10 µM.

With `CC(=O)N1C(Nc2ccccn2)CCN1c1ccccc1` (centres undefined), the TGI is > 10 µM.

`CCNCCNc1c2ccccc2nc2ccccc12` showed a TGI of 3.63 µM.

Take `CCOC(=O)c1c(N)sc2c1C(C(=O)OCC)CC2` (centres undefined): the TGI is > 100 µM.

Regarding `CC(=O)OCC1OC(SC2=N/C(=C\c3cc4c(=O)c5ccccc5sc4s3)C(=O)N2c2ccccc2)C(OC(C)=O)C(OC(C)=O)C1OC(C)=O` (centres undefined), the TGI is > 100 µM.

For the compound `CCCC1(NC(=O)C(F)(F)F)CC(OC)OC2COC(c3ccccc3)OC21` (centres undefined), the TGI was > 100 µM.

Take `COC(O)C(=O)c1c2c(cc3c1CC1(Cc4cc5c(cc4C1)CCC5)C3)CCC2` (centres undefined): the TGI amounted to 32.1 µM.

Turning to `CCOC(=O)N(Cc1cccs1)c1cc(OC)c(OC)c(OC)c1`, the TGI was > 100 µM.

`COc1ccc(/C=C2\C(=O)N(C3OC(COC(C)=O)C(OC(C)=O)C(OC(C)=O)C3OC(C)=O)c3ccccc3N=C2N)cc1` (centres undefined) had a TGI of 66.9 µM.

With `O=S(=O)(O)c1ccc(O)c2ncc(Cl)cc12`, the TGI was > 100 µM.

For the compound `N=c1oc2cc(O)ccc2cc1C(=O)NCc1ccccc1`, the TGI came out at 34.2 µM.

Compound `COc1cc(/C=C/C(=O)c2ccc(NS(=O)(=O)c3cc([N+](=O)[O-])ccc3C)cc2)cc(OC)c1OC` returned a TGI of 8.47 µM.

On to `C=CCOc1ccc(/C(N=Nc2ccc([N+](=O)[O-])cc2)=N/NC(=O)c2ccccc2)cc1OC`, for which the TGI was > 100 µM.

Consider `NC(=O)N/N=C1\CCCCc2ccccc21`, for which the TGI is > 10 µM.

Consider `CCOC(=O)c1ccc(N=C2C(=S)N(c3ccc(C(=O)OCC)cc3)C(=N)N2/N=C/c2ccccc2)cc1`, for which the TGI was > 100 µM.

Another assay relates to NCI-H226 lung. Nature of the assay: NCI-60 cell line screen, 48 h.
In turn, `COc1ccc2oc(=N)c(C(=O)NCc3ccccc3)cc2c1` yielded a TGI of 85 µM.

In the case of `CC(=O)N1C(c2[nH]c3ccccc3c2-c2ccccc2)CCN1c1ccccc1` (centres undefined), the TGI is > 10 µM.

`CC(=O)N1C(Nc2ccccn2)CCN1c1ccccc1` (centres undefined): the TGI was > 10 µM.

For the compound `CCOC(=O)c1c(N)sc2c1C(C(=O)OCC)CC2` (centres undefined), the TGI was > 100 µM.

For `CC(=O)OCC1OC(SC2=N/C(=C\c3cc4c(=O)c5ccccc5sc4s3)C(=O)N2c2ccccc2)C(OC(C)=O)C(OC(C)=O)C1OC(C)=O` (centres undefined), the TGI is > 100 µM.

On to `CCCC1(NC(=O)C(F)(F)F)CC(OC)OC2COC(c3ccccc3)OC21` (centres undefined), for which the TGI is > 100 µM.

On to `CCOC(=O)N(Cc1cccs1)c1cc(OC)c(OC)c(OC)c1`, for which the TGI is > 100 µM.

In the case of `O=S(=O)(O)c1ccc(O)c2ncc(Cl)cc12`, the TGI was > 100 µM.

With `N=c1oc2cc(O)ccc2cc1C(=O)NCc1ccccc1`, the TGI is > 100 µM.

`COc1cc(/C=C/C(=O)c2ccc(NS(=O)(=O)c3cc([N+](=O)[O-])ccc3C)cc2)cc(OC)c1OC` displayed a TGI of 8.74 µM.

Regarding `C=CCOc1ccc(/C(N=Nc2ccc([N+](=O)[O-])cc2)=N/NC(=O)c2ccccc2)cc1OC`, the TGI was > 100 µM.

Regarding `NC(=O)N/N=C1\CCCCc2ccccc21`, the TGI was > 10 µM.

`CCOC(=O)c1ccc(N=C2C(=S)N(c3ccc(C(=O)OCC)cc3)C(=N)N2/N=C/c2ccccc2)cc1`: the TGI is 31.4 µM.

(Values after PubChem BioAssay (NCI).)
